Assay results from patent US6737383B1, “Herbicidal oxadiazolidines” (priority 1999, dated 2004).

Key:
[1] = system: giant foxtail; assay: Test B pre/postemergence giant foxtail; type: in vivo, Setaria faberii
Outline: (§1)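 Herbicidal effect was estimated by eye on a ten-point control scale after plants spent twelve to sixteen days in a greenhouse following soil or foliar treatment. Foliar sprays targeted plants at one to four leaves; all doses were formulated in a non-phytotoxic solvent with surfactant.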

[2] = system: soybean; assay: Test B pre/postemergence soybean; type: in vivo, Glycine max
Outline: as §1

[3] = system: surinam grass; assay: Test B pre/postemergence surinam grass; type: in vivo, Brachiaria decumbens
Outline: as §1

[4] = system: rice; assay: Test B flood test rice; type: in vivo, Oryza sativa
Outline: (§2)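 Flood test on plants grown to the 2-leaf stage; treated plants kept in greenhouse twelve to sixteen days, then visually rated against controls on a 0 (no effect) to 10 (complete control) scale.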

[5] = system: sugar beet; assay: Test B pre/postemergence sugar beet; type: in vivo, Beta vulgaris
Outline: as §1

[6] = system: smallflower flatsedge; assay: Test B flood test smallflower flatsedge; type: in vivo, Cyperus difformis
Outline: as §2

[7] = system: bamyardgrass; assay: Test B flood test barnyardgrass; type: in vivo, Echinochloa crus-galli
Outline: as §2

[8] = system: cocklebur; assay: Test B pre/postemergence cocklebur; type: in vivo, Xanthium strumarium
Outline: as §1

[9] = system: purple nutsedge; assay: Test B pre/postemergence purple nutsedge; type: in vivo, Cyperus rotundus
Outline: as §1

[10] = system: wild oat; assay: Test B pre/postemergence wild oat; type: in vivo, Avena fatua
Outline: as §1

[11] = system: bedstraw; assay: Test B pre/postemergence bedstraw; type: in vivo, Galium aparine
Outline: as §1

[12] = system: velvetleaf; assay: Test B pre/postemergence velvetleaf; type: in vivo, Abutilon theophrasti
Outline: as §1

[13] = system: crabgrass; assay: Test B pre/postemergence crabgrass; type: in vivo, Digitaria sanguinalis
Outline: as §1

[14] = system: pigweed; assay: Test B pre/postemergence pigweed; type: in vivo, Amaranthus retroflexus
Outline: as §1

[15] = system: blackgrass; assay: Test B pre/postemergence blackgrass; type: in vivo, Alopecurus myosuroides
Outline: as §1

[16] = system: corn; assay: Test B pre/postemergence corn; type: in vivo, Zea mays
Outline: as §1

[17] = Postemergence, Rate 250 g/ha, scale 0 to 10
[18] = Postemergence, Rate 500 g/ha, scale of 0 to 10 where 0 is no effect and 10 is complete control
[19] = Preemergence, Rate 62 g/ha, scale of 0 to 10 where 0 is no effect and 10 is complete control
[20] = Preemergence, Rate 125 g/ha, scale of 0 to 10 where 0 is no effect and 10 is complete control
[21] = Preemergence, Rate 250 g/ha, scale 0 to 10, 0 is no effect, 10 is complete control
[22] = Preemergence, Rate 500 g/ha, scale 0 to 10, 0 is no effect, 10 is complete control
[23] = Rate 62 g/ha, Postemergence, scale 0 to 10 (0 no effect, 10 complete control)
[24] = Rate 125 g/ha, Postemergence, scale 0 to 10, 0 is no effect, 10 is complete control
[25] = Rate 62 g/ha, flood test species, Pre-emergence, visual evaluation after twelve to sixteen days
[26] = Rate 125 g/ha, under heading Pre-emergence, flood test species, visual evaluation after twelve to sixteen days
[27] = Rate 250 g/ha, Pre-emergence (flood test species), scale 0 to 10, 0 is no effect, 10 is complete control
[28] = Rate 500 g/ha, Pre-emergence, flood test species, scale 0 to 10 (0 no effect, 10 complete control)

Structure (SMILES): CC(C)N(C(=O)n1oc(=O)n(C(C)Cl)c1=O)c1ccccc1 (stereo not drawn) [Compound 438]
- Giant foxtail plant response rating [1, 17]: 9
- Giant foxtail plant response rating [1, 18]: 9
- Plant response rating, Giant foxtail [1, 19]: 2
- Plant response rating, Giant foxtail [1, 20]: 7
- Giant foxtail plant response rating [1, 21]: 10
- Giant foxtail plant response rating [1, 22]: 10
- Giant foxtail plant response rating [1, 23]: 5
- Giant foxtail plant response rating [1, 24]: 5
- Soybean plant response rating [2, 17]: 2
- Soybean plant response rating [2, 18]: 6
- Plant response rating, Soybean [2, 19]: 0
- Plant response rating, Soybean [2, 20]: 0
- Soybean plant response rating [2, 21]: 0
- Soybean plant response rating [2, 22]: 2
- Soybean plant response rating [2, 23]: 1
- Soybean plant response rating [2, 24]: 1
- B. signalgrass plant response rating ([3]; Postemergence, Rate 250 g/ha, scale 0 to 10, 0 no effect, 10 complete control): 0
- B. signalgrass plant response rating [3, 18]: 0
- Plant response rating, B. signalgrass [3, 19]: 0
- Plant response rating, B. signalgrass [3, 20]: 0
- B. signalgrass plant response rating [3, 21]: 0
- B. signalgrass plant response rating [3, 22]: 2
- B. signalgrass plant response rating [3, 23]: 0
- B. signalgrass plant response rating [3, 24]: 0
- Plant response rating, Rice (0 to 10 scale, 0 is no effect, 10 is complete control) [4, 25]: 0
- Rice plant response rating (0 to 10 scale, 0 is no effect, 10 is complete control) [4, 26]: 0
- Rice plant response rating [4, 27]: 0
- Rice plant response rating [4, 28]: 0
- Sugarbeets plant response rating [5, 17]: 0
- Sugarbeets plant response rating [5, 18]: 0
- Plant response rating, Sugarbeets [5, 19]: 0
- Plant response rating, Sugarbeets [5, 20]: 0
- Sugarbeets plant response rating [5, 21]: 0
- Sugarbeets plant response rating [5, 22]: 0
- Sugarbeets plant response rating [5, 23]: 0
- Sugarbeets plant response rating [5, 24]: 0
- Plant response rating, S. Flatsedge (0 to 10 scale, 0 is no effect, 10 is complete control) [6, 25]: 0
- S. Flatsedge plant response rating (0 to 10 scale, 0 is no effect, 10 is complete control) [6, 26]: 0
- S. Flatsedge plant response rating [6, 27]: 0
- S. Flatsedge plant response rating [6, 28]: 0
- Plant response rating, Barnyardgrass (0 to 10 scale, 0 is no effect, 10 is complete control) [7, 25]: 0
- Barnyardgrass plant response rating (0 to 10 scale, 0 is no effect, 10 is complete control) [7, 26]: 0
- Barnyardgrass plant response rating [7, 27]: 0
- Barnyardgrass plant response rating [7, 28]: 0
- Cocklebur plant response rating [8, 17]: 3
- Cocklebur plant response rating [8, 18]: 3
- Plant response rating, Cocklebur [8, 19]: 0
- Plant response rating, Cocklebur [8, 20]: 0
- Cocklebur plant response rating [8, 21]: 0
- Cocklebur plant response rating [8, 22]: 0
- Cocklebur plant response rating [8, 23]: 0
- Cocklebur plant response rating [8, 24]: 0
- Nutsedge plant response rating [9, 17]: 0
- Nutsedge plant response rating [9, 18]: 0
- Plant response rating, Nutsedge [9, 19]: 0
- Plant response rating, Nutsedge [9, 20]: 0
- Nutsedge plant response rating [9, 21]: 0
- Nutsedge plant response rating [9, 23]: 0
- Nutsedge plant response rating [9, 24]: 0
- Wild oats plant response rating [10, 17]: 0
- Wild oats plant response rating [10, 18]: 0
- Plant response rating, Wild oats [10, 19]: 0
- Plant response rating, Wild oats [10, 20]: 0
- Wild oats plant response rating [10, 21]: 1
- Wild oats plant response rating [10, 22]: 3
- Wild oats plant response rating [10, 23]: 0
- Wild oats plant response rating [10, 24]: 0
- Bedstraw plant response rating [11, 17]: 0
- Bedstraw plant response rating [11, 21]: 0
- Bedstraw plant response rating [11, 23]: 0
- Bedstraw plant response rating [11, 24]: 0
- Velvetleaf plant response rating [12, 17]: 0
- Velvetleaf plant response rating [12, 18]: 0
- Plant response rating, Velvetleaf [12, 19]: 0
- Plant response rating, Velvetleaf [12, 20]: 0
- Velvetleaf plant response rating [12, 21]: 5
- Velvetleaf plant response rating [12, 22]: 6
- Velvetleaf plant response rating [12, 23]: 0
- Velvetleaf plant response rating [12, 24]: 0
- Crabgrass plant response rating [13, 17]: 8
- Crabgrass plant response rating [13, 18]: 9
- Plant response rating, Crabgrass [13, 19]: 3
- Plant response rating, Crabgrass [13, 20]: 6
- Crabgrass plant response rating [13, 21]: 9
- Crabgrass plant response rating [13, 22]: 10
- Crabgrass plant response rating [13, 23]: 2
- Crabgrass plant response rating [13, 24]: 4
- Redroot pigweed plant response rating [14, 17]: 0
- Redroot pigweed plant response rating [14, 18]: 0
- Plant response rating, Redroot pigweed [14, 19]: 2
- Plant response rating, Redroot pigweed [14, 20]: 2
- Redroot pigweed plant response rating [14, 21]: 5
- Redroot pigweed plant response rating [14, 22]: 10
- Redroot pigweed plant response rating [14, 23]: 0
- Redroot pigweed plant response rating [14, 24]: 0
- Blackgrass plant response rating [15, 17]: 2
- Blackgrass plant response rating [15, 18]: 2
- Plant response rating, Blackgrass [15, 19]: 0
- Plant response rating, Blackgrass [15, 20]: 0
- Blackgrass plant response rating [15, 21]: 2
- Blackgrass plant response rating [15, 22]: 3
- Blackgrass plant response rating [15, 23]: 0
- Blackgrass plant response rating [15, 24]: 0
- Corn plant response rating [16, 17]: 0
- Corn plant response rating [16, 18]: 3
- Plant response rating, Corn [16, 19]: 0
- Plant response rating, Corn [16, 20]: 0
- Corn plant response rating [16, 21]: 0
- Corn plant response rating [16, 22]: 0
- Corn plant response rating [16, 23]: 0
- Corn plant response rating [16, 24]: 0
